Laboratory results taken from publication PMC2116235 (The Journal of Cell Biology, 1990).
Blank lines part the entries; values can stand above or below the substance they belong to.

Tests used:
[1] = test system: bovine aortic endothelial cells; assay: Cell spreading assay; format: cell-based; conditions: 37C
[2] = test system: adhesion of bovine aortic endothelial cells to type IV collagen; format: cell-based; conditions: type IV collagen 1-60 µg/ml; glycosaminoglycan up to 10 mg/ml; 60 min at 37C
type IV collagen [3] = target: T1, type IV collagen (Mus musculus, UniProt P02463+P08122); assay: Turbidity of type IV collagen assembly; format: biochemical, murine (EHS tumor); conditions: peptide 100 µg/ml with type IV collagen-NC1 domain mixtures, 37C, 360 nm
[4] = target: intact type IV collagen (EHS tumor) (mouse (endogenous in the EHS tumor)); assay: rotary shadowing electron microscopy
[5] = test system: adhesion of bovine aortic endothelial cells to NC1 domain; assay: Competition of endothelial cell binding to NC1 domain by peptides; format: cell-based
BSA = assay: Nonspecific binding of peptide to BSA-coated plastic; conditions: BSA coated onto plastic; all concentrations used; data not shown
[6] = test system: bovine aortic endothelial cells; assay: Binding of 125I-Hep-I to endothelial cells in solution, direct and competition; conditions: 5 µg 125I-Hep-I; unlabeled peptide up to 400-fold excess, 4C, 20 min
[7] = test system: microvascular endothelial cells; assay: Adhesion of microvascular endothelial cells; format: cell-based; conditions: preliminary observations
murine melanoma cells = assay: Adhesion of murine melanoma cells; format: cell-based; conditions: preliminary observations
[8] = cited from earlier work
type IV collagen [9] = target: T1, type IV collagen; assay: Solid phase binding of 125I-peptides to type IV collagen; design: species or system murine (EHS tumor); conditions: 37C, 2 h; for Competition of bound 125I-peptide by unlabeled corresponding peptide: 5 µg 125I-peptide, unlabeled peptide up to 400-fold excess (2 mg/ml)
type IV collagen [10] = conditions: cited from earlier work
[11] = test system: adhesion of bovine aortic endothelial cells to type IV collagen; assay: Competition of endothelial cell binding to type IV collagen by peptides; format: cell-based; conditions: ~5 µg (100 µg/ml) peptide; type IV collagen coated at 10 µg/ml; 60 min at 37C
[12] = test system: bovine aortic endothelial cells; conditions: as compared to fibronectin or laminin; cited from earlier work
[13] = test system: bovine aortic endothelial cells; assay: Direct solid phase cell-binding; format: cell-based; conditions: 35S-labeled cells, 37C, 30-60 min
[14] = 30 min, substrate type IV collagen 10 µg/ml or peptide Hep-I 20 µg/ml

T1 sequence (P02463 173-1669): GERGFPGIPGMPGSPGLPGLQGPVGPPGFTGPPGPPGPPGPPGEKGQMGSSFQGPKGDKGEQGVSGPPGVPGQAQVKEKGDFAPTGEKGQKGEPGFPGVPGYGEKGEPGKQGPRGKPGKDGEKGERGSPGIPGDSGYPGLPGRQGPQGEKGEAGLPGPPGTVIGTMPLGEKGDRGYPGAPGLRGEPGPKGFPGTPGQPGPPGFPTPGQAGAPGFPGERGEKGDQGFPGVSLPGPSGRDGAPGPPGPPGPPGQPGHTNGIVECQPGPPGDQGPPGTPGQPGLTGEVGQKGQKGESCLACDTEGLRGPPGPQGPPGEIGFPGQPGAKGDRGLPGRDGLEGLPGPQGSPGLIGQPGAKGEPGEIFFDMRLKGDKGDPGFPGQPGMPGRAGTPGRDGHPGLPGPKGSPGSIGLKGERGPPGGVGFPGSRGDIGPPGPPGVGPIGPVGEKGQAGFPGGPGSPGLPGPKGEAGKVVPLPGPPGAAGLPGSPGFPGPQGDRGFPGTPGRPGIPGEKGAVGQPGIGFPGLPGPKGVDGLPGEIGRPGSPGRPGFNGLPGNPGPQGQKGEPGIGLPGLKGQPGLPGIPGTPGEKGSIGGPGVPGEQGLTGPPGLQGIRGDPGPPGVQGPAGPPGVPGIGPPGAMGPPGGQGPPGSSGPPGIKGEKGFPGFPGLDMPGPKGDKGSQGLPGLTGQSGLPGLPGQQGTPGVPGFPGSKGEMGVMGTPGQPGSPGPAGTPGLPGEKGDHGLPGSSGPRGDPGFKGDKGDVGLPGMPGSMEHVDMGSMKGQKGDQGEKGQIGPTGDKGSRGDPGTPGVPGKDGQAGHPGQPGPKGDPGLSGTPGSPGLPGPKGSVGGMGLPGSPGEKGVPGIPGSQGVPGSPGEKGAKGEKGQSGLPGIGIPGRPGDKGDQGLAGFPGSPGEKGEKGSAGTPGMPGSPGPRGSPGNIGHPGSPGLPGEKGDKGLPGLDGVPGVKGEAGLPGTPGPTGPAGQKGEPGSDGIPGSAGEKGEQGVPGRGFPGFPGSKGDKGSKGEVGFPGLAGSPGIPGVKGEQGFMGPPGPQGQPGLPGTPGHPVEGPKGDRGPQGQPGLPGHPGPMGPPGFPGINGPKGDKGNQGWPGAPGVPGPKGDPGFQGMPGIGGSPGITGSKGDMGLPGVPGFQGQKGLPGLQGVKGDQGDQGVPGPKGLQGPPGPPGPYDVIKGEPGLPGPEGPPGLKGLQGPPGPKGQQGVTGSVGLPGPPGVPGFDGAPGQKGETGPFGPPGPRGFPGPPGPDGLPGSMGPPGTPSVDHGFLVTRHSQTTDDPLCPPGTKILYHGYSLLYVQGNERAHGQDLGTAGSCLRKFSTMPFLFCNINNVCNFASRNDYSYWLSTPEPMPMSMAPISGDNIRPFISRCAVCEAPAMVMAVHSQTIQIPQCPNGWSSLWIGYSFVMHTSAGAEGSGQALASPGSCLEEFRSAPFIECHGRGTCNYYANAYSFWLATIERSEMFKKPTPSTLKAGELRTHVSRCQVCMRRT
T1 sequence (P08122 29-1707 limits assumed): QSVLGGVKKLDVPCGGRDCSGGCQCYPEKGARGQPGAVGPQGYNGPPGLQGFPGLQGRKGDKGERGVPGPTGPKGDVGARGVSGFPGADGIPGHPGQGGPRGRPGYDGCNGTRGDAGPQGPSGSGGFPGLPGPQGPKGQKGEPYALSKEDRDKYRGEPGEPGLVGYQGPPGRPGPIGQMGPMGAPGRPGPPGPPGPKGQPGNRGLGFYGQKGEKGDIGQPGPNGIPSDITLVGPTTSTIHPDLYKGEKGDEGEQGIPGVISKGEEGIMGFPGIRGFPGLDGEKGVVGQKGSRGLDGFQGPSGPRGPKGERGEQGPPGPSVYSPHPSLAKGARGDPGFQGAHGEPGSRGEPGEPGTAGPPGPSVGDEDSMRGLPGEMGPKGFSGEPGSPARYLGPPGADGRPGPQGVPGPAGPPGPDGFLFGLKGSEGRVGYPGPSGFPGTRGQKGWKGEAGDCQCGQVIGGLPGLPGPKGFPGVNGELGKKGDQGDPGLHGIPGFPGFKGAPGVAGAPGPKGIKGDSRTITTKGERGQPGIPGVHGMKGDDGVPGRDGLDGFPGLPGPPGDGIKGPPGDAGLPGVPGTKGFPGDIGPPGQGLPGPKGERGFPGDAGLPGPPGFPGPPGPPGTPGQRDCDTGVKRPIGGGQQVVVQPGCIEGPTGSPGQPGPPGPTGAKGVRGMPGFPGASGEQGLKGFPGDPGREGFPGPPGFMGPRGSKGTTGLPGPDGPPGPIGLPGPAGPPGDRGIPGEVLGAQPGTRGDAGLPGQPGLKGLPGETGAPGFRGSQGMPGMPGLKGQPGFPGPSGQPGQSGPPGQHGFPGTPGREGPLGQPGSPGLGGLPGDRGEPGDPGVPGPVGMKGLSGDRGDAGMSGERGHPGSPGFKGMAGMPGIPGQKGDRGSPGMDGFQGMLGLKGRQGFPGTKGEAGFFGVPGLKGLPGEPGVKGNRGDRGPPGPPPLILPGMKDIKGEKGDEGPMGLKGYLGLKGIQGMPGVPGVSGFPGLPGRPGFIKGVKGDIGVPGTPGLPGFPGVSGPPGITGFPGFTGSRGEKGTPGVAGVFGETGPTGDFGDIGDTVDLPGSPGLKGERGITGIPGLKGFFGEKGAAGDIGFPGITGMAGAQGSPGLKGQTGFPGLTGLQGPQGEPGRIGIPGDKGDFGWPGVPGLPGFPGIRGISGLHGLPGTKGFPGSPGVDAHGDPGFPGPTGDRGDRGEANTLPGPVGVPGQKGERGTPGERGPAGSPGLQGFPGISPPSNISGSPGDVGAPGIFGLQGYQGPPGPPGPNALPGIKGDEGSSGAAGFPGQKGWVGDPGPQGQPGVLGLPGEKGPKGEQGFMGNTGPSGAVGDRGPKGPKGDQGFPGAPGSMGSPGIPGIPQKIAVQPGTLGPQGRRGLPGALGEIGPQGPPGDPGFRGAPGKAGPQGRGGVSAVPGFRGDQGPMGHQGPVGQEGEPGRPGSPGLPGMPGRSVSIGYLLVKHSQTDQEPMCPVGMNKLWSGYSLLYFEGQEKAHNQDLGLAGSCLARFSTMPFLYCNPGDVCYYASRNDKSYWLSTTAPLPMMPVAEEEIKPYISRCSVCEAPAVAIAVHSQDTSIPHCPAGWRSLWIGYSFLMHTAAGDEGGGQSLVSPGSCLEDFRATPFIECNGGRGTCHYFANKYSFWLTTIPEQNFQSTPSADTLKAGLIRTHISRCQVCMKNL

Substance: BSA: control coating protein [reference compound]
Adhesion of added endothelial cells in spreading experiment ([1]; BSA substrate 5 µg/ml, all time intervals (30-90 min)): 1.7-2.2%

Substance: heparin
Effect on endothelial cell binding to type IV collagen [2]: unaffected

Additive effect on maximal turbidity (type IV collagen [3]): did not have any additive effect
Substance: MFKKPTPSTLKAGELR [peptide 4]

Substance: intact type IV collagen (EHS tumor) (complex)
percent of the total type IV collagen in the lattice [4]: 74%

Substance: GRGDSP [reference compound]
Effect on endothelial cell adhesion to NC1 domain ([5]; up to 500 µg/ml inhibitor, NC1 coated 20 µg/ml, 60 min at 37C): did not have any effect

Nonspecific binding of the peptide to BSA, of total binding to type IV collagen (BSA): < 2%
Competition of bound 125I-peptide by unlabeled corresponding peptide (type IV collagen [9]): efficient competition
Substance: TAGSCLRKFSTM [peptide Hep-I]
Endothelial cell adhesion to NC1 domain ([5]; 1 µg (20 µg/ml) peptide, NC1 coated 20 µg/ml, 100% = no inhibitor, 60 min at 37C): ≤ 20%
Inhibition of cell adhesion on NC1 domain substrates ([5]; substrates coated with NC1 domain (Discussion)): ~ 80%
Competition for binding of 125I-Hep-I to endothelial cells [6]: efficiently competed
Spread cells, of attached endothelial cells [1, 14]: ~ 60%
Spread cells, of attached endothelial cells ([1]; 60 min, peptide Hep-I substrate 20 µg/ml): 83%
Spread cells, of attached endothelial cells ([1]; 90 min, peptide Hep-I substrate 20 µg/ml): 84%
Adhesion of microvascular endothelial cells [7]: also adhered
Adhesion of murine melanoma cells (murine melanoma cells): also adhered
Binding to heparin [8]: specifically bound heparin
Inhibition of the binding of heparin to type IV collagen (type IV collagen [10]): dose-dependent manner
Maximal inhibition of adhesion to type IV collagen [11]: ~ 50%

Substance: type IV collagen: type IV collagen isolated from the EHS tumor, a murine tumor
Preferential adhesion of aortic endothelial cells [12]: preferably adhered
Spread cells, of attached endothelial cells [1, 14]: ~ 92.8%
Binding to heparin [8]: specifically bound heparin
Adhesion of added endothelial cells ([13]; coated at 0.05 µg/well, ~5,000/well): ~ 20%
Adhesion of added endothelial cells ([13]; coated at 5 µg/well): ~ 40%

Substance: GDSRTITTKGERGQP [peptide ET-2]
Competition for binding of 125I-Hep-I to endothelial cells [6]: failed to compete

Additive effect on maximal turbidity (type IV collagen [3]): did not have any additive effect
Competition of bound 125I-peptide by unlabeled corresponding peptide (type IV collagen [9]): could not be competed
Nature of binding to type IV collagen (type IV collagen [9]; solid phase, 125I-peptide, pH 7.4): this binding should not be specific
Substance: DPLCPPGTKIL [peptide 1]
